This is an account of results in ChEMBL document CHEMBL1158861, “Zanhasaponins A and B, antiphospholipase A2 saponins from an antiinflammatory extract of Zanha africana root bark” (J Nat Prod, 1997).

For experiment [1], the target named is Acidic phospholipase A2 2 (Naja naja, UniProt P15445). As to the kind of experiment: Inhibition of Naja Naja PLA2.
The target of experiment [2] is Acidic phospholipase A2 2 (Naja naja) (UniProt P15445). As to conditions: 1.3 nM.
Description: Inhibition of Naja Naja PLA2 at 1.3 nM
For experiment [3], the system named is Mus musculus. As to the kind of experiment: Antiinflammatory activity against Arachidonic acid-induced ear edema in Swiss mouse assessed as reduction in ear thickness at 2 mg/ear. Format: functional. Also on record: scale not given: the % may be the effect or the level left.
Experiment [4] concerns the target Acidic phospholipase A2 2 (Naja naja) (UniProt P15445). As to the kind of experiment: Inhibition of Naja Naja PLA2 at […].
Experiment [5] is filed under the species Mus musculus. As to the kind of experiment: Effect on oxazolone-induced delayed type hypersensitivity in Swiss mouse assessed as reduction in ear thickness at 0.05 mg/ear after 102 hrs. The class given is functional. Further details: scale not given: the % may be the effect or the level left.
For experiment [6], the species on record is Mus musculus. As to the kind of experiment: Effect on oxazolone-induced delayed type hypersensitivity in Swiss mouse assessed as reduction in ear thickness at 0.05 mg/ear after 48 hrs. Format: functional. Further details: scale not given: the % may be the effect or the level left.
The species entered for experiment [7] is Mus musculus. Kind of experiment: Effect on oxazolone-induced delayed type hypersensitivity in Swiss mouse assessed as reduction in ear thickness at 0.05 mg/ear after 72 hrs. The class given is functional. Also on record: scale not given: the % may be the effect or the level left.
The species entered for experiment [8] is Mus musculus. Kind of experiment: Effect on oxazolone-induced delayed type hypersensitivity in Swiss mouse assessed as reduction in ear thickness at 0.05 mg/ear after 24 hrs. Format: functional. Also on record: scale not given: the % may be the effect or the level left.
The species named for experiment [9] is Mus musculus. As to the kind of experiment: Effect on oxazolone-induced delayed type hypersensitivity in Swiss mouse assessed as reduction in ear thickness at 0.05 mg/ear after 96 hrs. The class given is functional. Also on record: scale not given: the % may be the effect or the level left.
For experiment [10], the system named is Mus musculus. As to the kind of experiment: Antiinflammatory activity against TPA-induced ear edema in Swiss mouse assessed as reduction in ear thickness at 0.05 mg/ear after 10 days. Further details: scale not given: the % may be the effect or the level left. The class given is functional.

Acidic phospholipase A2 2, sequence (P15445 whole entry): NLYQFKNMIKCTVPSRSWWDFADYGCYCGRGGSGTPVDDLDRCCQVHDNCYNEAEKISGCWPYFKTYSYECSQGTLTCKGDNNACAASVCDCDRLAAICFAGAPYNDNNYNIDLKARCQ
Acidic phospholipase A2 2 (Naja naja), sequence (P15445 whole entry): as above

Consider `CO[C@H]1[C@H](O)[C@@H](O)[C@@H](O)[C@H](O)[C@@H]1O` [METHYLINOSITOL], for which the IC50 (usually the concentration that inhibits the measured activity by half) in [1] amounted to 1920 µM.
As to `CO[C@H]1[C@H](O)[C@@H](O)[C@H](O)[C@H](O)[C@H]1O`, the inhibition (as a rule, the drop in the measured response relative to a control, in per cent) in [2] is 45%.
With `CC(Cc1ccc(O)c(O)c1)C(C)Cc1ccc(O)c(O)c1` (configuration not stated) [NORDIHYDROGUAIARETIC ACID], in the experiment with Mus musculus [3], the Activity is given as 50%.
`C[C@@H]1O[C@@H](O[C@H]2[C@H](OC(=O)[C@]34CCC(C)(C)C[C@H]3C3=CC[C@@H]5[C@@]6(C)C[C@H](O)[C@H](O[C@@H]7O[C@H](C(=O)O)[C@@H](O)[C@H](O)[C@H]7O)[C@@](C)(C(=O)O)[C@@H]6CC[C@@]5(C)[C@]3(C)C[C@H]4O)O[C@@H](C)[C@H](O)[C@H]2O)[C@H](O[C@@H]2OC[C@@H](O)[C@H](O[C@@H]3OC[C@@H](O)[C@H](O)[C@H]3O)[C@H]2O)[C@H](O)[C@H]1O` gave an inhibition in experiment [4] of 30%.
In experiment [1], `C[C@@H]1O[C@@H](O[C@H]2[C@H](OC(=O)[C@]34CCC(C)(C)C[C@H]3C3=CC[C@@H]5[C@@]6(C)C[C@H](O)[C@H](O[C@@H]7O[C@H](C(=O)O)[C@@H](O)[C@H](O)[C@H]7O)[C@@](C)(C(=O)O)[C@@H]6CC[C@@]5(C)[C@]3(C)C[C@H]4O)O[C@@H](C)[C@H](O)[C@H]2O)[C@H](O)[C@H](O)[C@H]1O` [ZANHASAPONIN A] had an IC50 of 470 µM.
Same read-out and setting: then `C[C@@H]1O[C@@H](O[C@H]2[C@H](OC(=O)[C@]34CCC(C)(C)C[C@H]3C3=CC[C@@H]5[C@@]6(C)C[C@H](O)[C@H](O[C@@H]7O[C@H](C(=O)O)[C@@H](O)[C@H](O)[C@H]7O)[C@@](C)(C(=O)O)[C@@H]6CC[C@@]5(C)[C@]3(C)C[C@H]4O)O[C@@H](C)[C@H](O)[C@H]2O)[C@H](O[C@@H]2OC[C@@H](O)[C@H](O)[C@H]2O)[C@H](O)[C@H]1O` [ZANHASAPONIN B], with 440 µM.
Turning to `C[C@@H]1C[C@H]2[C@@H]3CCC4=CC(=O)C=C[C@]4(C)[C@@]3(F)[C@@H](O)C[C@]2(C)[C@@]1(O)C(=O)CO` [DEXAMETHASONE], the Activity in the experiment filed under Mus musculus [5] is reported as 84%; in the experiment listed under Mus musculus [6], 89%; in the experiment listed under Mus musculus [7] it was 93%; in the experiment filed under Mus musculus [8], 76%; in the experiment filed under Mus musculus [9], 81%; with Mus musculus [10], 81%.
